PubChem BioAssay AID1508610 (The Scripps Research Institute Molecular Screening Center, 2020)
The source made the active and inactive calls. No rule for the calls is given here.

molecular target: G-protein coupled receptor 151 (Homo sapiens) (UniProt Q8TDV0); assay: GPR151 activator potency, dose response, cell-based (AID 1508610); details: cell-based GPR151 activation reporter
Sequence (Q8TDV0 whole entry, looked up): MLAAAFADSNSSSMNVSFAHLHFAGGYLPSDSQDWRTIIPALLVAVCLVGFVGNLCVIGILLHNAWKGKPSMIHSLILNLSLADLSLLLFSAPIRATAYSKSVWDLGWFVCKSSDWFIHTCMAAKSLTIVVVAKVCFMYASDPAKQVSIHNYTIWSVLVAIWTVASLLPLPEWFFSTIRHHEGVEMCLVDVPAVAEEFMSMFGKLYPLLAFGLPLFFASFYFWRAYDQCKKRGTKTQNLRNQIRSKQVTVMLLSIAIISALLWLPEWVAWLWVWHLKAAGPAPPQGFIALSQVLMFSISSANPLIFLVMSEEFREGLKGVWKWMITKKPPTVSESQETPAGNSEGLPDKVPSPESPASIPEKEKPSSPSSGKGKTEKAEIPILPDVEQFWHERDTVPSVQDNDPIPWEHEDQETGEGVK

Row | SMILES | EC50
1 | C[C@H](O)[C@H]1NC(=O)[C@@H]2C[C@H](NCc3cccc(F)c3)CN2C1=O | > 28 µM (inactive)
2 | Cn1c(=O)[nH]c2nnc(-c3ccc(F)cc3)nc2c1=O | > 28 µM (inactive)
3 | Cc1cc(Br)ccc1NC(=O)c1ccc(C#N)cc1F | > 28 µM (inactive)
4 | O=C(/C=C/c1cccc([N+](=O)[O-])c1)NC1C2CC3CC(C2)CC1C3 (configuration not stated) | > 34 µM (inactive)
5 | COc1ccc(/C=C/C(=O)Nc2ccccc2F)cc1 | > 30.5 µM (inactive)
6 | Oc1ccc(Nc2ncnc3ccc(I)cc23)cc1 | > 28 µM (inactive)
7 | CCOC(=O)c1cc(S(=O)(=O)N2CCN(c3ccccc3F)CC2)cn1C | > 28 µM (inactive)
8 | CON(C)C(=O)c1ccc(OCc2ccnc(Cl)c2)cc1 | > 28 µM (inactive)
9 | O=C(CCCC(=O)N/N=C/c1cccc([N+](=O)[O-])c1)N/N=C/c1cccc([N+](=O)[O-])c1 | > 28 µM (inactive)
10 | Cc1sc(NC(=O)c2ccco2)c(CN2CCN(CCO)CC2)c1C | > 27.7 µM (inactive)
11 | O=c1oc2cc(O)ccc2cc1-c1ccccc1 | > 28.2 µM (inactive)
12 | O=C(NCCOc1ccccc1)c1ccc(-c2ccc(N3CCOCC3)nc2)s1 | > 33 µM (inactive)
13 | CCC[n+]1c(/C=C2\Sc3ccccc3N2CC)ccc2ccccc21 | > 24.5 µM (inactive)
14 | CN1CCN(c2ccc(-c3ccc(C(=O)NCCOc4ccccc4)s3)cc2)CC1 | > 27.7 µM (inactive)
15 | C=CCN1C(=O)CC(C(=O)OC)C12CCN(C1CCN(C(=O)OCC)CC1)CC2 (configuration not stated) | > 28 µM (inactive)
16 | c1cncc(-c2noc(C34CC5CC(CC(C5)C3)C4)n2)c1 | > 26.4 µM (inactive)
17 | Cc1ccc(C(=O)NN=C2CCC(C)CC2)cc1 (configuration not stated) | > 28 µM (inactive)
18 | CCc1cc2c(cc3c(=O)n(CC(=O)NCc4ccccc4Br)ncn32)s1 | > 28 µM (inactive)
19 | Cc1ccc(S(=O)(=O)Cn2nnnc2CN2CCN(c3ccccc3F)CC2)cc1 | > 28 µM (inactive)
20 | Cc1ccc2cc(CN(CC3CCCO3)C(=O)C3CCC3)c3nnnn3c2c1 (configuration not stated) | > 28 µM (inactive)
21 | O=C(N1CCN(Cc2ccccc2)CC1)C(Cl)(Cl)Cl | > 28 µM (inactive)
22 | O=C1CS/C(=C\c2nc3ccccc3s2)N1 | > 31.6 µM (inactive)
23 | COc1ccc(-c2nc(-c3ccccn3)no2)cc1 | > 35.9 µM (inactive)
24 | CCC(=O)N1CCN(c2ccc(NC(=O)c3ccco3)cc2)CC1 | > 28 µM (inactive)

Row | SMILES | EC50
25 | Cc1cccc2c(C(=O)NCc3ccccc3)cc(-c3ccccc3)nc12 | > 24.6 µM (inactive)
26 | COc1ccc(C(=O)Nc2noc3ccccc23)cc1 | > 28 µM (inactive)
27 | Cn1c(=O)[nH]c(=O)c2c1nc(N1CCN(c3cccc(Cl)c3)CC1)n2Cc1ccccc1 | > 22.4 µM (inactive)
28 | Cc1ccc(CNC(=O)c2c(C)cc(=O)oc2C)cc1 | > 28 µM (inactive)
29 | Cn1c2c(c(=O)n(C)c1=O)C(c1cccc(F)c1)C1=C(CC(C)(C)CC1=O)N2 (configuration not stated) | > 27.8 µM (inactive)
30 | O=C(COC(=O)CCS(=O)(=O)c1ccccc1Cl)NC(=O)NCc1ccco1 | > 28.7 µM (inactive)
31 | O=C(Nc1ccc(Br)cn1)c1ccc(N2CCCCC2)c([N+](=O)[O-])c1 | > 28 µM (inactive)
32 | CCOc1ccc(-c2n[nH]c(=S)n2-c2ccccc2)cc1 | inactive
33 | CCC(C)NC(=O)C1=C(C)C(=O)OC12CCCCC2 (configuration not stated) | > 28 µM (inactive)
34 | COc1ccc2nccnc2c1[N+](=O)[O-] | > 40 µM (inactive)
35 | COc1cccc(NC(=O)n2ncc3c(C)cccc32)c1 | > 28 µM (inactive)
36 | O=C(NC1CC1)c1ccc(-c2ccc(N3CCOCC3)nc2)s1 | > 27.6 µM (inactive)
37 | COc1ccc(/C=C/C(=O)Nc2ccccc2C(=O)O)cc1OC | > 28 µM (inactive)
38 | Cc1ccc(-c2nc(-c3ccccn3)no2)cc1Cl | > 35 µM (inactive)
39 | CCN1CCN(Cc2ccc(NC(=O)Nc3ccccc3C)cc2)CC1 | > 28 µM (inactive)
40 | CCOc1cc(OCC)cc(C(=O)Nc2ccc(Br)cn2)c1 | > 28 µM (inactive)
41 | Cc1cc2nc(-c3cccnc3Cl)[nH]c2cc1C | > 26.1 µM (inactive)
42 | COc1ccc(-c2ccc(C(=O)NCCO)s2)cn1 | > 27.9 µM (inactive)
43 | CC(C)CC(C(=O)Nc1cccc([N+](=O)[O-])c1)N1C(=O)c2ccccc2C1=O (configuration not stated) | > 28 µM (inactive)
44 | CCCOc1ccc(NC(=O)CC2C(=O)N(c3ccc(Cl)cc3)C(=S)N2Cc2ccncc2)cc1 (configuration not stated) | > 23.5 µM (inactive)
45 | NP(=O)(Oc1ccc(Cl)cc1)Oc1ccc(Cl)cc1 | > 28.2 µM (inactive)
46 | COc1ccc(N2C(=O)NC3CC2(C)Oc2c(OC)cccc23)c(OC)c1 (configuration not stated) | > 28.7 µM (inactive)
47 | CC(C(=O)O)c1ccc(C(=O)c2ccccc2)s1 (configuration not stated) | > 28 µM (inactive)
48 | CCOc1ccc(/C=C2\SC(=S)N(CC(=O)Nc3ccc(O)cc3)C2=O)cc1 | > 28.4 µM (inactive)

Row | SMILES | EC50
49 | COc1ccc(CCNc2ncnc3c2oc2ccccc23)cc1OC | > 27.6 µM (inactive)
50 | O=C(/C=C/c1ccc(O)cc1)c1ccc(O)cc1O | > 28 µM (inactive)
51 | O=C(Nc1ccc(Br)cc1)c1ccc(Br)c(S(=O)(=O)N2CCCCC2)c1 | > 20.9 µM (inactive)
52 | COC(C(=O)NCC1CCC2(CCN(Cc3ccccc3)CC2)O1)c1ccccc1 (configuration not stated) | > 28 µM (inactive)
53 | O=C(Nc1ncc([N+](=O)[O-])s1)c1ccc(Br)cc1F | > 27.5 µM (inactive)
54 | O=C(Nc1ccc(Oc2cccc(Oc3ccc(NC(=O)c4ccccc4F)cc3)c2)cc1)c1ccccc1F | > 14.8 µM (inactive)
55 | C=CCOC(=O)C1=C(C)N2CCSC2=C(C#N)C1c1ccco1 (configuration not stated) | > 32 µM (inactive)
56 | COc1ccc(-c2nc(Nc3ccccc3F)c3ccccc3n2)cc1OC | > 28.2 µM (inactive)
57 | O=C(c1ccc(CNS(=O)(=O)c2ccc(Cl)cc2)cc1)N1CCCC1 | > 31.6 µM (inactive)
58 | O=C(Nc1ncc([N+](=O)[O-])s1)c1ccccc1F | > 34 µM (inactive)
59 | O=C(CCn1nc(-c2ccccc2)c2ccccc2c1=O)NCc1ccccc1 | > 28 µM (inactive)
60 | COc1ccc(CCNc2ccnc(Nc3ccc(N4CCOCC4)cc3)n2)cc1 | inactive
61 | CCCCCCCC(=O)N/N=C/c1ccccc1OC | > 28 µM (inactive)
62 | C#CCN1CCc2cc(OC)c(OC)cc2C1C (configuration not stated) | > 28 µM (inactive)
63 | COc1ccc(NS(=O)(=O)c2cccc3c(S(=O)(=O)Nc4ccc(OC)cc4OC)cccc23)c(OC)c1 | > 20.8 µM (inactive)
64 | COc1ccc(N(CC(=O)Nc2ccccc2-c2ccccc2)S(C)(=O)=O)cc1 | > 28 µM (inactive)
65 | CCc1ccc2c(c1)/C(=C/C(=O)c1cccs1)C(=O)N2 | > 28 µM (inactive)
66 | COc1ccc(CCNC(=O)/C=C\C(=O)O)cc1OC | > 28 µM (inactive)
67 | Cc1ccc(C(=O)Nc2cccc(C(=O)O)c2)cc1 | > 32.6 µM (inactive)
68 | CC1CCCCN1Cc1nc2c(c(=O)n(C)c(=O)n2C)n1CC(N)=O (configuration not stated) | > 28 µM (inactive)
69 | COc1ccc(-c2ccc(/C=N/N3C(=O)C4C5C=CC(C6CC56)C4C3=O)o2)c([N+](=O)[O-])c1 (configuration not stated) | > 28 µM (inactive)
70 | CN(C)/C=C1/C(=O)N(c2nc3ccccc3s2)N=C1C(F)(F)F | > 38.5 µM (inactive)
71 | CCCCNc1c(N2CCCC(C(=O)OCC)C2)c(=O)c1=O (configuration not stated) | > 28 µM (inactive)
72 | COc1ccc(C2C3C(C)=NN=C3CC(C)(O)C2C(C)=O)cc1 (configuration not stated) | inactive
